≈ marks a conversion by molar mass, not a printed value. Where two headings read alike, the source gives them in different places.
Tests used:
[1] = Metabolic stability in liver microsomes; format: in vitro ADME
Description: (§1) Metabolic stability of the compounds of Formula (I) was determined by standard liver microsome assays. Briefly, metabolic stability was tested by adding the compound to be tested dissolved in DMSO to human, dog, or rat liver microsomes. Assays were run with a starting concentration of 1 μM test compound. The reaction was initiated by addition of nicotinamide adenine dinucleotide phosphate[…] (NADPH) regeneration components at 37° C., at which time an aliquot was immediately quenched in an ice-cold acetonitrile/methanol/water solution. Reaction mixture was incubated at 37° C. on a shaker, and additional aliquots were taken at 7, 15, 30 and 60 minutes. Following quench and centrifugation, samples were analyzed on HPLC/MS/MS.

[2] = Metabolic stability in liver microsomes; format: in vitro ADME, human; settings: 1 μM test compound; for half-life at 1 μM: human, liver microsomes, 37° C.
Description: as §1

[3] = Solubility in Normal Ringer Solution; format: physicochemical; settings: aqueous buffer, kinetic from dmso stock, pH 7.4, room temperature
Description: Compounds of the invention were also tested for solubility in Normal Ringer Solution. […] Following vortex and incubation for 40 minutes at room temperature, solutions were filtered, quenched with acetonitrile, and analyzed by liquid chromatography. Solubility limits were determined by comparison to a standard curve. […] Solubility is reported as “greater than” if the observed increase between the last 2 dilutions tested is greater than 2-fold.

human TRPA1 (hTRPA1) = target: T1, human TRPA1 (hTRPA1) (Homo sapiens, UniProt O75762); experiment: Inhibition of human TRPA1, whole-cell patch clamp; format: cell-based; settings: antagonist effect, whole cell patch configuration; read-out: hTRPA1
T1 construct: expressed in transfected cells
T1 sequence (O75762 whole entry): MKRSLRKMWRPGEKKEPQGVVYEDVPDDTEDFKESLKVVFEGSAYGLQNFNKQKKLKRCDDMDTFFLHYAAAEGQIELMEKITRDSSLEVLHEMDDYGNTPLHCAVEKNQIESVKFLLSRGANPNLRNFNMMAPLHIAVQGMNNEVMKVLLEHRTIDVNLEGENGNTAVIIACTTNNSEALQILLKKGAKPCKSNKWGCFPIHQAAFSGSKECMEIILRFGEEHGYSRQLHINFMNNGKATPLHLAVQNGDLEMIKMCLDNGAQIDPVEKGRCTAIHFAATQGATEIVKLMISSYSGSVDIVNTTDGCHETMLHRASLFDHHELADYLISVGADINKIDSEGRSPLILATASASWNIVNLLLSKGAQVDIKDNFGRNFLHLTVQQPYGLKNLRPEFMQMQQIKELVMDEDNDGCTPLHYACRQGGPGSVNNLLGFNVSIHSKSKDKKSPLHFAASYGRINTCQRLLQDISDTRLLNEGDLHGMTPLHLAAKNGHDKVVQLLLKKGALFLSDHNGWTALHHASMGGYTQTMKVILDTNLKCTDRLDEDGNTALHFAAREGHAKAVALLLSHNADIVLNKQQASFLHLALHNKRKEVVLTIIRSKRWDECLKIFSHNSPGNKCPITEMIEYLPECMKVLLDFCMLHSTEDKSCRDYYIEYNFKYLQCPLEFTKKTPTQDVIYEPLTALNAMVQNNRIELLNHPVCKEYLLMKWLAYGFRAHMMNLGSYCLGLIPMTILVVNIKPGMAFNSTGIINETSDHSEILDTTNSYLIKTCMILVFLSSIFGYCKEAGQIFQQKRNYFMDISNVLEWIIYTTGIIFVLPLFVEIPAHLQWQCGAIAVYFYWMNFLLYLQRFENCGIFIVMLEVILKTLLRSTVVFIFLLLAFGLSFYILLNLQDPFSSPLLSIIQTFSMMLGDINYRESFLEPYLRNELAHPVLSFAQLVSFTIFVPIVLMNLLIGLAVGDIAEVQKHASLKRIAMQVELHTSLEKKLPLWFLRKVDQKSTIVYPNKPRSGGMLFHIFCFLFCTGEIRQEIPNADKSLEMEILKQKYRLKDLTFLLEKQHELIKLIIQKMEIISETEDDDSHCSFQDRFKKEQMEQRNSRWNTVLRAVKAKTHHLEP
Description: Data for TRPA1 inhibition was obtained by this method for the indicated compounds of Formula (I), with the relevant data included in Table 14 below. All currents were recorded in whole-cell configuration using EPC-9 and EPC-10 amplifiers and Patchmaster software (HEKA). […] The standard pipette solution consisted of 140 mM CsAsp, 10 mM EGTA, 10 mM HEPES, […], 1.91 mM CaCl2, and up to 0.3 mM Na2GTP, with pH adjusted to 7.2 with CsOH. In addition, a solution containing 145 mM CsCl, 10 mM HEPES, 10 mM EGTA, and up to 0.3 mM Na2GTP and 1 mM MgCl2 (pH 7.2 adjusted with CsOH) can be used. The standard bath solution contained 150 mM NaCl, 10 mM HEPES, 10 mM glucose, 4.5 mM KCl, 1 mM EGTA, 3 mM MgCl2, with pH adjusted to 7.4 with NaOH. In some instances, 2 mM CaCl2 was added in place of EGTA and the concentration of MgCl2 was reduced to 1 mM.
Data were collected either by continuous recordings at −60 mV or by applying voltage ramps from a holding potential of 0 mV every 4 s. Continuous recordings were collected at 400 Hz and digitally filtered off-line at 10 Hz for presentation. Voltage ramps were applied from −100 mV to 100 mV over the course of 400 ms, and data were collected at 10 kHz and filtered at […]. Inward and outward currents were analyzed from the ramps at −80 and 80 mV, respectively. Liquid junction potential correction was not used.
Solutions were switched using a gravity-fed continuous focal perfusion system. To achieve rapid temperature changes, two temperature control, and perfusion systems were employed simultaneously. For temperatures greater than or equal to 22° C., a Warner Instruments bipolar temperature controller (TC-344B) and inline heater (SHM-8) were used. […] Temperatures were confirmed using a thermistor (Warner Instruments, TA-29), with temperatures at the recorded cell estimated to be within +/−2° C. of those reported.
The antagonist effects of compounds of Formula (I) against human TRPA1 (“hTRPA1”) in a whole cell patch configuration were evaluated using the in vitro assay protocol described above.

CYP2B6 = CYP2B6 (Homo sapiens, UniProt P20813); experiment: in vitro; settings: probe Buproprion
CYP2B6, sequence (P20813 whole entry): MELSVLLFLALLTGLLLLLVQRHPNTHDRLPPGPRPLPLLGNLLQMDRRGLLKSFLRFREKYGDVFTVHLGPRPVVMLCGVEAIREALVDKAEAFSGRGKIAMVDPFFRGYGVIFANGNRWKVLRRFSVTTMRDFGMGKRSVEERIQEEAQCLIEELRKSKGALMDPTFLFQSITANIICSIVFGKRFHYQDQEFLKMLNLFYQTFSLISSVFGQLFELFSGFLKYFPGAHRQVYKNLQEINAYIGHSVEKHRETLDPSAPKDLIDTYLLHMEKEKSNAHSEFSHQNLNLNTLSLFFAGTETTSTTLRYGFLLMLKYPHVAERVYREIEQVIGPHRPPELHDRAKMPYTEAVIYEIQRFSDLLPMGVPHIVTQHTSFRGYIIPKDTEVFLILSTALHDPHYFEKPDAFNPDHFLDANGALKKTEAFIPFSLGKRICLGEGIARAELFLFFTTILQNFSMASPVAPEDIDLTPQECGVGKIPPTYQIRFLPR

[4] = Oral bioavailability of solutions in non-fasted rats; settings: rat, in vivo, oral solution, read-out: Rat % F
Description: Early bioavailability studies in rat were conducted with solutions of the compounds of the invention. Compounds were delivered via oral administration as a solution in an appropriate excipient. Example formulations include, but are not limited to: 4% DMSO, 10% Solutol HS-15, and 86% water or 4% DMSO, 5% Tween, 25% Cremophor EL. Target concentrations were typically 1 mg/mL, and administered via oral gavage to non-fasted rats. The absolute bioavailability is the dose-corrected area under the curve (AUC) non-intravenous divided by the dose corrected AUC intravenous. The formula for calculating F for a drug administered by the oral route (PO) is given below:
% F=AUC PO×Dose IV/AUC IV×Dose PO

[5] = Kinetic solubility in buffered solutions; format: physicochemical; settings: aqueous buffer, kinetic from dmso stock, 24 hours ambient
Description: The solubilities of the compounds of Formula (I) were tested using the procedure outlined in Kerns, E. H., J Pharm Sci (2001) 90:1838-1858, incorporated herein by reference and described below. Data for solubility was obtained by this method for compounds of Formula (I) and included in Table 3. The chromatographic data was performed by HPLC using an Xbridge Shield RP18 column with the following column dimensions: 4.6×30 mm, 3.5 μm. The mobile phase consisted of deionized water (MPA) with trifluoroacetic acid added in at 0.1% (v/v) (MPC) and HPLC-grade acetonitrile (MPB). The mobile phase flow rate was 2.5 mL/min with the column and sampling operating at ambient temperature. UV detection was set to 280 nm.
Samples for analysis of the compounds of Formula (I) were prepared at a % v/v=1/19 (i.e., 10 μL of the stock solution into 190 μL of buffer) by spiking stock solutions of the compounds of Formula (I) into buffered solutions. Three buffered solution systems were prepared: pH 4.0 prepared from 50 mM sodium acetate in a 5% dextrose in water solution, pH 7.4 prepared from 75 mM sodium phosphate in a 1:1 ratio of sterilized water for injection to a 5% dextrose in water solution, and pH 9.0 prepared from 50 mM sodium bicarbonate in a 1:2 ratio of sterilized water for injection to a 5% dextrose in water solution. The samples were incubated on a microplate shaker at 300 rpm for 24 hours at ambient temperature. Following incubation, the samples were centrifuged for five minutes at 13 k rpm at ambient temperature. The resulting supernantant was extracted for HPLC analysis.

in vitro = settings: plasma
Description: With this method, free compound is separated from protein-bound compound by dialysis across a semi-permeable membrane.
The protein binding was tested at a concentration of 1 μM. Pooled human, cynomolgus monkey, dog, and rat K2EDTA plasma was thawed and centrifuged at 2000×g for 10 minutes at 4° C. to remove particulates; any lipid on the top of the supernatant was also removed by aspiration. The plasma was warmed to 37° C. for 10 minutes before use. Test compounds were spiked into 2 ml plasma in a polypropylene plate to a final concentration of 1 μM. Triplicate 400 μl aliquots of spiked plasma were transferred into the Thermo RED dialysis units and dialyzed against 600 μl of PBS buffer. […] After 6 hours dialysis, triplicate 50 μl aliquots were removed from the RED plate, matrix-matched with either PBS buffer or blank plasma, as appropriate, and quenched with 4 volumes of ACN containing an internal standard. The extracted samples were then centrifuged at 2000×g for 5 minutes at 4° C. The supernatant (50 μl) was removed and diluted with 100 μl water prior to LC/MS/MS bioanalysis.

[6] = dog liver microsomes, both sexes, read-out: Half-Life both sexes
[7] = rat liver microsomes, both sexes, read-out: Half-Life Both sexes
[8] = sodium acetate buffer, pH 4.0, 50 mM sodium acetate, read-out: pH 4.0 solubility
[9] = sodium bicarbonate buffer, pH 9.0, 50 mM sodium bicarbonate, read-out: pH 9.0 solubility
[10] = sodium phosphate buffer, pH 7.4, 75 mM sodium phosphate, read-out: pH 7.4 solubility

| Compound | half-life at 1 μM [1, 7] [min] | half-life at 1 μM [2] [min] | solubility at 40 min [3] [µM] | IC50 (human TRPA1 (hTRPA1)) [nM] | further results |
| --- | --- | --- | --- | --- | --- |
| C[C@@H](C(=O)Nc1ccnc(-c2cnc(N3CCC[C@H]3C(F)(F)F)nc2)n1)n1cnc2[nH]c(=O)n(C)c(=O)c21 [Compound 5, (S)-2-(1-methyl-2,6-dioxo-2,3-dihydro-1H-purin-7(6H)-yl)-N-(2′-((S)-2-(trifluoromethyl)pyrrolidin-1-yl)-[2,5′-bipyrimidin]-4-yl)propanamide] | 113 | 37.8 | 4.37 (≈ 2.32 µg/mL) | 663 | half-life at 1 μM [1, 6]: > 120 min |
| C[C@@H](C(=O)Nc1ccnc(-c2cnc(N3CC4C(C3)C4(F)F)nc2)n1)n1cnc2c1c(=O)n(C)c(=O)n2C (some centres unmarked) [Compound 26] | – | – | > 15.1 | – | – |
| C[C@@H](C(=O)Nc1ccnc(-c2cnc(N3CCC(C(F)(F)F)C3)nc2)n1)n1cnc2c1c(=O)n(C)c(=O)n2C (stereo partly drawn) [Compound 16, (2S)-2-(1,3-dimethyl-2,6-dioxo-2,3-dihydro-1H-purin-7(6H)-yl)-N-(2′-(3-(trifluoromethyl)pyrrolidin-1-yl)-2,5′-bipyrimidin-4-yl)propanamide] | – | 52.4 | > 47 | 24.9 | – |
| Clc1ccccc1CN1CCc2sccc2C1 [Ticlopidine, reference compound] | – | – | – | – | inhibition at 10 µM (CYP2B6): 98.2% |
| C[C@@H](C(=O)Nc1ccnc(-c2cnc(N3CC4CC4C3)nc2)n1)n1cnc2c1c(=O)n(C)c(=O)n2C (stereo partly drawn) [Compound 15, (2S)—N-(2′-(3-azabicyclo[3.1.0]hexan-3-yl)-2,5′-bipyrimidin-4-yl)-2-(1,3-dimethyl-2,6-dioxo-2,3-dihydro-1H-purin-7(6H)-yl)propanamide] | 72.7 | 88.8 | 16.3 (≈ 7.96 µg/mL) | 26.7 | bioavailability [4]: 35% |
| C[C@@H](C(=O)Nc1ccnc(-c2cnc(N3CCC[C@H]3C(F)(F)F)nc2)n1)n1cnc2c1c(=O)n(C)c(=O)n2C(F)F [Compound 6, (S)-2-(3-(difluoromethyl)-1-methyl-2,6-dioxo-2,3-dihydro-1H-purin-7(6H)-yl)-N-(2′-((S)-2-(trifluoromethyl)pyrrolidin-1-yl)-[2,5′-bipyrimidin]-4-yl)propanamide] | 118 | 27.4 | ~23 (≈ 13.4 µg/mL) | 29.7 | – |
| C[C@@H](C(=O)Nc1ccnc(-c2cnc(N3CC(C(F)(F)F)C3)nc2)n1)n1cnc2c1c(=O)n(C)c(=O)n2C [Compound 13, (S)-2-(1,3-dimethyl-2,6-dioxo-2,3-dihydro-1H-purin-7(6H)-yl)-N-(2′-(3-(trifluoromethyl)azetidin-1-yl)-2,5′-bipyrimidin-4-yl)propanamide] | 60 | > 60 | > 77.6 | 62.9 | – |
| C[C@H]1CCCCN1c1ncc(-c2nccc(NC(=O)Cn3cnc4c3c(=O)n(C)c(=O)n4C)n2)cn1 [Compound 17, (S)-2-(1,3-dimethyl-2,6-dioxo-2,3-dihydro-1H-purin-7(6H)-yl)-N-(2′-(2-methylpiperidin-1-yl)-2,5′-bipyrimidin-4-yl)acetamide] | – | 8 | – | 41.2 | Hepatic Clearance ([1]; rat liver microsomes): 22 mL/min/kg; Human Liver Microsomes Hepatic Clearance [2]: 16 mL/min/kg; solubility kinetic at 24 h [5, 8]: 11 µg/mL (≈ 22.4 µM); solubility kinetic at 24 h [5, 9]: 9 µg/mL (≈ 18.3 µM); solubility kinetic at 24 h [5, 10]: 12 µg/mL (≈ 24.5 µM) |
| C[C@H]1CCCN1c1ncc(-c2nccc(NC(=O)Cn3cnc4c3c(=O)n(C)c(=O)n4C)n2)cn1 [Compound 19, (S)-2-(1,3-dimethyl-2,6-dioxo-2,3-dihydro-1H-purin-7(6H)-yl)-N-(2′-(2-methylpyrrolidin-1-yl)-2,5′-bipyrimidin-4-yl)acetamide] | 63.8 | 50 | > 18.2 | 96.1 | bioavailability [4]: 77%; Hepatic Clearance ([1]; dog liver microsomes): 11 mL/min/kg; half-life at 1 μM [1, 6]: 44 min; Male Hepatic Clearance ([1]; rat liver microsomes, male): 25 mL/min/kg; half-life at 1 μM ([1]; rat liver microsomes, male, read-out: Male Half-Life): 36 min; Human Liver Microsomes Hepatic Clearance [2]: 9 mL/min/kg; solubility kinetic at 24 h [5, 8]: 6 µg/mL (≈ 12.6 µM); solubility kinetic at 24 h [5, 9]: 3.5 µg/mL (≈ 7.35 µM); solubility kinetic at 24 h [5, 10]: 10 µg/mL (≈ 21 µM) |
| Cn1c(=O)c2c(ncn2CC(=O)Nc2ccnc(-c3cnc(N4CCCC4(C)C)nc3)n2)n(C)c1=O [Compound 18, 2-(1,3-dimethyl-2,6-dioxo-2,3-dihydro-1H-purin-7(6H)-yl)-N-(2′-(2,2-dimethylpyrrolidin-1-yl)-2,5′-bipyrimidin-4-yl)acetamide] | 21.8 | 12 | – | 10.4 | Hepatic Clearance ([1]; rat liver microsomes): 24 mL/min/kg; Human Liver Microsomes Hepatic Clearance [2]: 15 mL/min/kg; solubility kinetic at 24 h [5, 8]: 51 µg/mL (≈ 104 µM); solubility kinetic at 24 h [5, 9]: 17 µg/mL (≈ 34.7 µM); solubility kinetic at 24 h [5, 10]: 41 µg/mL (≈ 83.6 µM) |
| CC(=O)CC(c1ccccc1)c1c(O)c2ccccc2oc1=O (centres unmarked) [Warfarin, reference compound] | – | – | – | – | fraction unbound at 6 h, 1 μM (in vitro; beagle, dog): 0.065; fraction unbound at 6 h, 1 μM (in vitro; cynomolgus monkey): 0.011 |

From patent US20170050966A1, “INHIBITING THE TRANSIENT RECEPTOR POTENTIAL A1 ION CHANNEL” (HYDRA BIOSCIENCES, INC., priority 2014, published 2017)
